# Active and inactive are the calls of the source.
# Experiments:
# [1] = target: T1, Calpain-2 catalytic subunit (Sus scrofa, UniProt P43367); test: m-calpain protease blockers, concentration series – biochemical, fluorogenic peptide substrate, dose response (AID 1420); assay type: functional
# T1 sequence (P43367 whole entry): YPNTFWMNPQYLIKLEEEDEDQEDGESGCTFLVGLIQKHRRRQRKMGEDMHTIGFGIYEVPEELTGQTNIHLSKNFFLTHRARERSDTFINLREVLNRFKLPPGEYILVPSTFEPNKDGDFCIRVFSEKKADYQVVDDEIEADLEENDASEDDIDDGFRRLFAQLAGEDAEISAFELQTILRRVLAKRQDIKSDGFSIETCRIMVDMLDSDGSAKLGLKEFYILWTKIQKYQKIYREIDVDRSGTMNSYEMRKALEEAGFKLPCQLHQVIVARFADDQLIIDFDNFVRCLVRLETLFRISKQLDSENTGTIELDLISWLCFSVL
# [2] = fluconazole-exposed Candida albicans growth modulators – fluorescence, retest, confirmation (AID 2467); assay type: functional, cell-based
# [3] = target: T2, Heat shock factor protein 1 (Mus musculus, UniProt P38532); test: enhancement of HSF1-driven luciferase signal – cell-based, NIH3T3, luminescence, dose retest, confirmation (AID 435004); assay type: functional;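 note: stress induced by proteasome inhibitor MG132 added 30 min after compound; luciferase reporter driven by HSF1 response element in NIH3T3 cells; actives raise luminescence as potentiators of the MG132 stress response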
# T2 sequence (P38532 whole entry): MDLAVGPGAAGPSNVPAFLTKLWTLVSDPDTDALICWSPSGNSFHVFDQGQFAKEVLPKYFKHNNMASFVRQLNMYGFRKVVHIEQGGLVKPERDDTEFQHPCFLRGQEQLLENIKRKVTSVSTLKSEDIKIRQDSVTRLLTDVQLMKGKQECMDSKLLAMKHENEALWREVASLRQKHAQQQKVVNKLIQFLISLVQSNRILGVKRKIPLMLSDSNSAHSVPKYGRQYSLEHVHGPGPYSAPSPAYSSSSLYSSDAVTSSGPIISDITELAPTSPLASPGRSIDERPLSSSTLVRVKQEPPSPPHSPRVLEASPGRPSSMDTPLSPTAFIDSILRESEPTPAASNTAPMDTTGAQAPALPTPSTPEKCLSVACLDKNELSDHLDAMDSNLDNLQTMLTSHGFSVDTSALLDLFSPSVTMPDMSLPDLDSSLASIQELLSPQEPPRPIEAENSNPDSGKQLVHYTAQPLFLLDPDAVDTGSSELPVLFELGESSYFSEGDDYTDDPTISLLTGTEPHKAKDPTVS
# HEK293 = test: Fluorescence-based counterscreen for potentiators or agonists of NPY-Y2: cell-based high-throughput dose response assay to identify inhibitors of cyclic nucleotide gated ion channel (CNGC) activity. In this assay, the parental HEK293 cell line transfected with a cyclic-nucleotide gated ion channel (CNGC)-based cAMP sensor is used to measure inhibition of isoproterenol-induced CNGC activity by test compound.; assay type: functional; conditions: Homo sapiens;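 note: stimulus is 1 µM isoproterenol at EC100 plus PDE inhibitor Ro 20-1724 at 25 µM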
# [4] = target: T3, Neuropeptide Y receptor type 2 (Homo sapiens, UniProt P49146); test: Fluorescence-based cell-based high-throughput dose response assay for agonists of NPY-Y2. [Related pubchem assays: 1703 (Screening assay (CNGC inhibitors).), 1359 (Screening assay (NPY-Y2 potentiators or agonists).), 1304 (Screening assay (NPY-Y1 potentiators or agonists).), 1710 (Screening assay (NPY-Y2 agonists).), 1791 (Summary AID.)]; assay type: functional
# T3 sequence (P49146 whole entry): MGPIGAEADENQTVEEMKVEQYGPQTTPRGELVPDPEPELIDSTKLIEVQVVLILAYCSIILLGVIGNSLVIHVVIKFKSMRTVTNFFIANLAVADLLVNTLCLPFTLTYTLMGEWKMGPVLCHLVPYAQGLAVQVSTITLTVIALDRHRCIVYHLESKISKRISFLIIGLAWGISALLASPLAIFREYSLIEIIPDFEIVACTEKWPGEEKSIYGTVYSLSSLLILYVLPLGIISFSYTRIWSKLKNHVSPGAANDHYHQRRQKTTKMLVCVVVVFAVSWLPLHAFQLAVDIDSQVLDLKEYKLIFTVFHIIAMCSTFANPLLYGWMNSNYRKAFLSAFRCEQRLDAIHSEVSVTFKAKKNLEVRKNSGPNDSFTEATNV
# [5] = NIH-3T3 fibroblast cytotoxicity, dose response, cytotoxicity control, cell-based, fluorescence, Alamar Blue, secondary assay (AID 2327); assay type: functional;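 note: NIH-3T3 mouse fibroblasts cultured with fluconazole at 8 µg/mL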
# [6] = target: T4, Neuropeptide Y receptor type 1 (Homo sapiens, UniProt P25929); test: Fluorescence-based counterscreen for agonists of NPY-Y2: cell-based high-throughput dose response assay for agonists of NPY-Y1.; assay type: functional
# T4 sequence (P25929 whole entry): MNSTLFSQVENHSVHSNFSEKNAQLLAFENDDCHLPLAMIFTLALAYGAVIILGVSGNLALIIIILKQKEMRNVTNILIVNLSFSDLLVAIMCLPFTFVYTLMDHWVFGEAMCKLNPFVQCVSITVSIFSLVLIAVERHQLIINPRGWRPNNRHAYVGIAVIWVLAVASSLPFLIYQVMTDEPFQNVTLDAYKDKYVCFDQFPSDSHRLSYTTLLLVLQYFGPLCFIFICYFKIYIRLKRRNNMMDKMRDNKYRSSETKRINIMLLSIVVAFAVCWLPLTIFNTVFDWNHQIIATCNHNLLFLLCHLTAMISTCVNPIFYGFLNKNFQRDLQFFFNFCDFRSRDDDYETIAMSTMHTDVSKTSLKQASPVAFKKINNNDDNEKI
# [7] = target: Peroxisome proliferator-activated receptor gamma/Nuclear receptor corepressor 2 (Homo sapiens, UniProt P37231+Q9Y618); assay type: functional
# Sequence of Peroxisome proliferator-activated receptor gamma/Nuclear receptor corepressor 2 (P37231 whole entry): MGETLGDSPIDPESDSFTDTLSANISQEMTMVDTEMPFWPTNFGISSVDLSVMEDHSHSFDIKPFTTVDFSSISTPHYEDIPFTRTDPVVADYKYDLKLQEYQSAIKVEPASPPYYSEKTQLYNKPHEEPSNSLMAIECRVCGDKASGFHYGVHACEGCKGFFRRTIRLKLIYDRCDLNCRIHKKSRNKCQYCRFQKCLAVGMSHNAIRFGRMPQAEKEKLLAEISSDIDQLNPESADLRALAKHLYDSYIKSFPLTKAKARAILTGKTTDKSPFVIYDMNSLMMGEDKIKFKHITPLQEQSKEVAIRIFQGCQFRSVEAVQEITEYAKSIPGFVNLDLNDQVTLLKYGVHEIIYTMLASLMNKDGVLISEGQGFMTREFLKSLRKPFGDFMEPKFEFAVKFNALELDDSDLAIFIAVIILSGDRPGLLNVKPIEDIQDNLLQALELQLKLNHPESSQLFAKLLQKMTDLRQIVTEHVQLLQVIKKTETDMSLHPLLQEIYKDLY
# Sequence of Peroxisome proliferator-activated receptor gamma/Nuclear receptor corepressor 2 (Q9Y618 whole entry): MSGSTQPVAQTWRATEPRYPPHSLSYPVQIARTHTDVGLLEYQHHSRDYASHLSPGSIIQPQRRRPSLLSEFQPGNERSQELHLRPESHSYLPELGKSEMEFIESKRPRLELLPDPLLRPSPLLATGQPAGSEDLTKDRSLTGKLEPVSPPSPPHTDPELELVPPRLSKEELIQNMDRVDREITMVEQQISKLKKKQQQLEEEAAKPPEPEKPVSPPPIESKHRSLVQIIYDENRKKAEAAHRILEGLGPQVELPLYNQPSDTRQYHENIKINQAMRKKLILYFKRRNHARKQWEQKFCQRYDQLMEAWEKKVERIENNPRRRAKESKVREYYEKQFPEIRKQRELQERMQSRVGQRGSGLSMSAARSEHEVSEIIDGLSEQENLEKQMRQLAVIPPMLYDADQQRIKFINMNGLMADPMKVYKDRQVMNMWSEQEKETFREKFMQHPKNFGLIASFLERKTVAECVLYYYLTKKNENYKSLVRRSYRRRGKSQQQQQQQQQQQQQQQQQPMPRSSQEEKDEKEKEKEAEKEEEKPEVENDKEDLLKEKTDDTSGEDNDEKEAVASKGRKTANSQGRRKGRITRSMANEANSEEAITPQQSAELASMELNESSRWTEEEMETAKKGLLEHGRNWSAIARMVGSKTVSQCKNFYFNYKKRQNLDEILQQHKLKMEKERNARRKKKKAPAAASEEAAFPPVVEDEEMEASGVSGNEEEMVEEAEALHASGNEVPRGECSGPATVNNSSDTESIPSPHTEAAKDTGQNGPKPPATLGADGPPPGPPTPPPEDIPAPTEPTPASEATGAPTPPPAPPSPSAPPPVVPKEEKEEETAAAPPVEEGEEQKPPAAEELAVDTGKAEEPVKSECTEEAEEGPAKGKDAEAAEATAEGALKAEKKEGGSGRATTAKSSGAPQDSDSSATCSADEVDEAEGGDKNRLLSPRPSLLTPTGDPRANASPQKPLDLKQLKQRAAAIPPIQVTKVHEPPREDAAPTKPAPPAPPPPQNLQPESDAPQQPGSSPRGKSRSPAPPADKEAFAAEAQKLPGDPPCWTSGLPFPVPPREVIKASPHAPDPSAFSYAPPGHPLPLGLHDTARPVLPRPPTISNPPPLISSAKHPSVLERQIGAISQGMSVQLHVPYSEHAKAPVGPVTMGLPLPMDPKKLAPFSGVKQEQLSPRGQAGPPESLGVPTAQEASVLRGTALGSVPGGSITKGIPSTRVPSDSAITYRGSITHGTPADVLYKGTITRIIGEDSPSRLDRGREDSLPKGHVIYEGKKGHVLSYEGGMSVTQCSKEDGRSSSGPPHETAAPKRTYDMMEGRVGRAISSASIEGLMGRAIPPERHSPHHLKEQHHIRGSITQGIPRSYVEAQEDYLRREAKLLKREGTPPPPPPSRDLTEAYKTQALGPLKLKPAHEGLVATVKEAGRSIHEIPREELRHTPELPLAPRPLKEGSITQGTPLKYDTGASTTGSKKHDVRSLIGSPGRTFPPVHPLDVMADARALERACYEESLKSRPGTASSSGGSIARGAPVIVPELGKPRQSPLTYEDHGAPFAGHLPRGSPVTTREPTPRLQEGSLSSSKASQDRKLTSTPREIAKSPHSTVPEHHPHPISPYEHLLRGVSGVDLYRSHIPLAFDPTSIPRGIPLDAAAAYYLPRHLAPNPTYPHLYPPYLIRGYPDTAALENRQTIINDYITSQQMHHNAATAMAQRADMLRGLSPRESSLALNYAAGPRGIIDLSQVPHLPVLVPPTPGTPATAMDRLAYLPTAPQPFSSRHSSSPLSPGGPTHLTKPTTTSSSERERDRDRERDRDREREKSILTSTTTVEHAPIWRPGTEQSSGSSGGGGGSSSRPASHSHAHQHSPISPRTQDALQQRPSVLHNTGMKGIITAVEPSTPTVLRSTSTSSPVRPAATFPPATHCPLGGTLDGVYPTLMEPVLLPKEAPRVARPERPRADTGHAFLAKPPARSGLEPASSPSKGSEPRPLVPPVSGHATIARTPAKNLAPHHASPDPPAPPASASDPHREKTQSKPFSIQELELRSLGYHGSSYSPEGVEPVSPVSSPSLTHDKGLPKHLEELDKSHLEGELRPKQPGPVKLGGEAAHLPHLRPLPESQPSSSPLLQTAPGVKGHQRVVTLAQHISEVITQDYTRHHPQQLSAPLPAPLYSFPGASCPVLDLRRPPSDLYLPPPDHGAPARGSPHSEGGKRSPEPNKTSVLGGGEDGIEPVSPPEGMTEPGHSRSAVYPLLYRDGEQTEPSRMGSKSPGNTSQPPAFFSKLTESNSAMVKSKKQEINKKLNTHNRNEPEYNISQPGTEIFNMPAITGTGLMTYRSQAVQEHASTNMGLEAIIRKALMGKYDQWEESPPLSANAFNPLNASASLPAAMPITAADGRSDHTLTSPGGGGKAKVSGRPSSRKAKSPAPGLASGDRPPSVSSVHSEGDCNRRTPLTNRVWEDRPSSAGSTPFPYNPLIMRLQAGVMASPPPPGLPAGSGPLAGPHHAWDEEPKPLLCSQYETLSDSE
# [8] = target: Ras and Rab interactor 1/Tyrosine-protein kinase ABL1 (Homo sapiens, UniProt P00519+Q13671); assay type: functional;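 note: biochemical TR-FRET dose-response test measuring inhibition of binding between Rin1 and Abl proteins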
# [9] = target: Photoreceptor-specific nuclear receptor (Homo sapiens, UniProt Q9Y5X4); assay type: functional;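 note: potency for compounds that break the NR2E3 corepressor complex and count as activators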
# Sequence of Photoreceptor-specific nuclear receptor (Q9Y5X4 whole entry): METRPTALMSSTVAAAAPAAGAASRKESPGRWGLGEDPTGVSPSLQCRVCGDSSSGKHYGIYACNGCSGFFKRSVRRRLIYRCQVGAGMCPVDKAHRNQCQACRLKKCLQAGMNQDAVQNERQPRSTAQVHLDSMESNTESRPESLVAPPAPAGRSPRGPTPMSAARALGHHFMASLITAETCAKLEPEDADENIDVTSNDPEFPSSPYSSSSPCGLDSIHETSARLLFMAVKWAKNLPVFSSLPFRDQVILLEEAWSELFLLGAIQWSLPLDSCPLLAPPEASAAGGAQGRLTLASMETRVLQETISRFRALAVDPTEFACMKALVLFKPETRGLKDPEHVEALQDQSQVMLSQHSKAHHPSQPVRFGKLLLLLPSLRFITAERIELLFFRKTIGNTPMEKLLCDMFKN
# [10] = target: T5, Ubiquitin-conjugating enzyme E2 N (Homo sapiens, UniProt P61088); assay type: functional;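 note: Dose-response confirmation in a TR-FRET assay detecting UBC13-driven polyubiquitin chain formation, inhibition measured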
# T5 sequence (P61088 whole entry): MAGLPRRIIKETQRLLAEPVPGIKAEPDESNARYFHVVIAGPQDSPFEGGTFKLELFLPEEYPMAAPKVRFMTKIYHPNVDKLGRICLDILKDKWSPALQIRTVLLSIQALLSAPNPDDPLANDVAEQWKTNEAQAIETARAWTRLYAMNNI
# [11] = target: T6, Alkaline phosphatase, tissue-nonspecific isozyme (Homo sapiens, UniProt P05186)
# T6 sequence (P05186 whole entry): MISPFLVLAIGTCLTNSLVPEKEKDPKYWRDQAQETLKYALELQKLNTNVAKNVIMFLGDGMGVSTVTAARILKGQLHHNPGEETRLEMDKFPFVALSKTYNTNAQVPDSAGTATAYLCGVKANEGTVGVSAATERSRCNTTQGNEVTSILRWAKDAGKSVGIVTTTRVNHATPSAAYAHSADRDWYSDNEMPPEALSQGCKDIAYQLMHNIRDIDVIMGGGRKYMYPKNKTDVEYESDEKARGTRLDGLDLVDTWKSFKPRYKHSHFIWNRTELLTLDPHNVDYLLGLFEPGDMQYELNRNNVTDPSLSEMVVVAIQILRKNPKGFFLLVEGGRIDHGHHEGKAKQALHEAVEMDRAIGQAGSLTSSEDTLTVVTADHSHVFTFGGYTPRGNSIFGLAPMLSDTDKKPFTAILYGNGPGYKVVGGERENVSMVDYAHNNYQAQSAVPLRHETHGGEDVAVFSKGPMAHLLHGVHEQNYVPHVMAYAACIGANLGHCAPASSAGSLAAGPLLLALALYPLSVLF
# [12] = tested on: Streptococcus sp. 'group A'; test: Streptococcus pyogenes SK(-)GAS viability under kanamycin – luminescence, BacTiterGlo, confirmation, counter-screen for streptokinase expression inhibitor project, dose response (AID 1900); assay type: functional, organism-based
# Streptococcus = test: GAS UMAA2166 growth inhibition – luminescence, BacTiterGlo, counter-screen for streptokinase expression inhibitor project, dose response (AID 1915); assay type: functional, organism-based;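 note: potency for reduction of bacterial viability or growth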
# Streptokinase A = target: T7, Streptokinase A (Streptococcus pyogenes serotype M1, UniProt P10520); test: viability-normalized secreted streptokinase activity reduction – plasminogen activation absorbance, OD405, dose response (AID 1914); assay type: functional, Streptococcus pyogenes M1 GAS;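 note: secreted streptokinase activity via plasminogen activation per viability signal from cell pellet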
# T7 sequence (P10520 whole entry): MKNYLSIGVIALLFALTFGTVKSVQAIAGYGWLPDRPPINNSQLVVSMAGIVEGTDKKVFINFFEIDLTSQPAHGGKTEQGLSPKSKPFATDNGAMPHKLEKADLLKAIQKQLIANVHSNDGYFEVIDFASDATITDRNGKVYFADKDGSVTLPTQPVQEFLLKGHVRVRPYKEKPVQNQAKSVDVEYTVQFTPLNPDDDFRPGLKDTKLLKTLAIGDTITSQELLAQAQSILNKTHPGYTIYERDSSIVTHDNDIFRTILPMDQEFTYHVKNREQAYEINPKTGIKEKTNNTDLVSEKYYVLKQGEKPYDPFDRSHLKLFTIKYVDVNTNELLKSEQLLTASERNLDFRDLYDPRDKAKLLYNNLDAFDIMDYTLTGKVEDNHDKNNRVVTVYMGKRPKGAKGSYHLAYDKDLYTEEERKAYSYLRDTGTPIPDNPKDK
# [13] = target: Acyl-homoserine lactone acylase PvdQ (Pseudomonas aeruginosa (strain LESB58), UniProt Q9I194); test: PvdQ acylase enzyme activity blockers – biochemical, fluorescence, plate reader and imaging, cherry-picks, dose response (AID 493231)
# [14] = target: Peroxisome proliferator-activated receptor gamma/Nuclear receptor coactivator 2 (Homo sapiens, UniProt P37231); test: (§1) TR-FRET dose response biochemical High Throughput Screening assay for agonists of the steroid receptor coactivator 2 (SRC-2) recruitment by the peroxisome proliferator-activated receptor gamma (PPAR gamma): non-selective agonists. [Related pubchem assays: 1297, 1032 ]; assay type: functional
# Major prion protein = Major prion protein (Homo sapiens, UniProt P04156); assay type: functional, cell-based
# [15] = target: Peroxisome proliferator-activated receptor gamma/Nuclear receptor coactivator 3 (Homo sapiens, UniProt P37231); test: as §1, with “3 (SRC-3)” for “2 (SRC-2)”, “1301 (Confirmation screen.), 1048 (Primary screen.)]” for “1297, 1032 ]”; assay type: functional
# [16] = target: Peroxisome proliferator-activated receptor gamma/Nuclear receptor coactivator 1 (Homo sapiens, UniProt P37231); test: as §1, with “1 (SRC-1)” for “2 (SRC-2)”, “assays (depositor defined):AID1300, AID1808, AID504735, AID631]” for “assays: 1297, 1032 ]”; assay type: protein assay
# Genome polyprotein = Genome polyprotein (Hepatitis C virus, UniProt Q2Q167); test: disruption of hepatitis C core self-association – biochemical, TR-FRET, dose response (AID 2159); parameters: species or system Hepacivirus hominis;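 note: blocks dimerization of HCV core protein measured by TR-FRET between tagged core106 pairs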
# Sequence of Genome polyprotein (Q2Q167 whole entry): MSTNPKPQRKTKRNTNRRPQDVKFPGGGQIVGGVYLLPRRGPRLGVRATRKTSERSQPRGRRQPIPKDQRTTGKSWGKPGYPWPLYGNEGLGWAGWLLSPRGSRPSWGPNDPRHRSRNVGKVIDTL
# Aspartyl aminopeptidase = Aspartyl aminopeptidase (Plasmodium falciparum 3D7, UniProt Q8I2J3)
# Sequence of Aspartyl aminopeptidase (Q8I2J3 whole entry): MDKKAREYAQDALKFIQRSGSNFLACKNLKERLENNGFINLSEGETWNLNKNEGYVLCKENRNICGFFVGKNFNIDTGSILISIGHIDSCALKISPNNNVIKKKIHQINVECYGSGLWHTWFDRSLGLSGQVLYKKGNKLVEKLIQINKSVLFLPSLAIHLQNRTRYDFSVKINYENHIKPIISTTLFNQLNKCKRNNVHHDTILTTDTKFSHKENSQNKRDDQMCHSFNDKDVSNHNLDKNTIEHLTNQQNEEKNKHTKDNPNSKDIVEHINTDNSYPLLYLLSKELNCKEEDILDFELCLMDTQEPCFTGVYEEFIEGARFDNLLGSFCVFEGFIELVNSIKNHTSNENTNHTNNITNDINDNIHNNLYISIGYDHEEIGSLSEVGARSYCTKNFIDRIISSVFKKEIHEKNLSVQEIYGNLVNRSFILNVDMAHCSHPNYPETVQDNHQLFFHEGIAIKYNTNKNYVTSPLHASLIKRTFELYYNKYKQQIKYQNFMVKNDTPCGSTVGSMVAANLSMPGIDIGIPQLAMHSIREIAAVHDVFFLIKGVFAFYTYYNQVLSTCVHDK
# Procathepsin L = Procathepsin L (Homo sapiens, UniProt P07711)
# Sequence of Procathepsin L (P07711 whole entry): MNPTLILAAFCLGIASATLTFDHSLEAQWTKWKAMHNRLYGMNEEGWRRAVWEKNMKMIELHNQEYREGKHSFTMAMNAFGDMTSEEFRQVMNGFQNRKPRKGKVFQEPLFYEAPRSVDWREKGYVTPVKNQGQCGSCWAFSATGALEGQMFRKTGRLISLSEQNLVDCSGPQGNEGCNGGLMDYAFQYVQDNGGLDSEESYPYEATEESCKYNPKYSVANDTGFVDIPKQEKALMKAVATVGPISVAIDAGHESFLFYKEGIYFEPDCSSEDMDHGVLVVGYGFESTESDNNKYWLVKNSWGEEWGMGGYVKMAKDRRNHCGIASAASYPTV
# [17] = M. tuberculosis H37Rv growth inhibitors, H37Rv strain (AID 1626); assay type: functional
# Cytochrome P450 2D6 = Cytochrome P450 2D6 (Homo sapiens, UniProt P10635);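 note: CYP2D6 member of a cytochrome P450 panel assay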
# Sequence of Cytochrome P450 2D6 (P10635 whole entry): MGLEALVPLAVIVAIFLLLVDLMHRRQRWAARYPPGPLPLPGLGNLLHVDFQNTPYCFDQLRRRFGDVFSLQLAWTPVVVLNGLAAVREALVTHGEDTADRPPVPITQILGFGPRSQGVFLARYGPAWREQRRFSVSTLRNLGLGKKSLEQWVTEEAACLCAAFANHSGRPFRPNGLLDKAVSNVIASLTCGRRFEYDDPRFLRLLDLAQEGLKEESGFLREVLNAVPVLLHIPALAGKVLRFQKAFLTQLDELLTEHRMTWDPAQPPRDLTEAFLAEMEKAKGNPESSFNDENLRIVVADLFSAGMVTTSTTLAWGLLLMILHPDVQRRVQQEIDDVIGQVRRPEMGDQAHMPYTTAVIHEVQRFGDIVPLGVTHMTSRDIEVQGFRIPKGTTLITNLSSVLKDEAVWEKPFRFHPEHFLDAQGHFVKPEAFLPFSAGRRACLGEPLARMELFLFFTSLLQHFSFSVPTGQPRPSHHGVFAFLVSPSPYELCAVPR
smiles,measurement,setting,value
O=C(COc1ccc(Cl)cc1)Nc1ncc([N+](=O)[O-])s1,IC50,[1],24.9 µM (not active)
same,EC50,[2],0.166 µM (active)
same,EC50,[3],0.382 µM (active)
same,EC50,HEK293,> 35.4 µM (not active)
same,EC50,[4],> 35.4 µM (not active)
same,EC50,[5],36 µM (active)
same,EC50,[6],33.8 µM (not active)
Cc1cccc(C)c1NC(=O)CCCCCC1NC(=O)NC1C (configuration not stated),IC50,[7],> 39.8 µM (not active)
same,IC50,[8],0.106 µM (active)
same,IC50,[9],3.85 µM (active)
COc1ccc(Cl)cc1NC(=O)CN1CCC(n2nnc3cc(C)ccc32)CC1,IC50,[10],> 20 µM (inactive)
same,EC50,[11],70.6 µM (not active)
same,EC50,[12],12.2 µM (active)
same,EC50,Streptococcus,93.4 µM (active)
same,EC50,Streptokinase A,26.4 µM (active)
Cc1cccc(C(C#N)c2ccc(Cl)nn2)c1 (configuration not stated),EC50,[3],> 260 µM (inactive)
same,AC50,[13],2.01 µM (active)
Cc1cc(Br)c2nc3c(c(C(=O)O)c2c1)CCCCC3,EC50,[14],12.8 µM (not active)
same,IC50,Major prion protein,0.141 µM (active)
same,IC50,[7],0.604 µM (active)
same,EC50,[15],> 79.4 µM (not active)
same,IC50,cells,> 138 µM (inactive)
same,EC50,[16],> 79.4 µM (inactive)
same,IC50,Genome polyprotein,> 49.8 µM (not active)
same,IC50,[9],1.38 µM (active)
Nc1nncn1C(=O)CCCOc1ccc(Cl)cc1Cl,IC50,Aspartyl aminopeptidase,2.6 µM (active)
same,IC50,Procathepsin L,> 59.6 µM (not active)
CCN(CC)S(=O)(=O)c1ccc(C(=O)Nn2cnnc2)cc1,IC50,Aspartyl aminopeptidase,1.07 µM (active)
same,IC50,Procathepsin L,> 59.6 µM (not active)
CC(=O)OCCCN1c2ccccc2Nc2nnc(-c3ccccc3)cc21,EC50,[11],71.8 µM (not active)
same,IC50,[17],> 100 µM (active)
same,AC50,Cytochrome P450 2D6,15.8 µM (inconclusive)
